Results: patent US11279944B2, “Of herbicide tolerance to 4-hydroxyphenylpyruvate dioxygenase (HPPD) inhibitors by down-regulation of HPPD expression in soybean” (BASF AGRICULTURAL SOLUTIONS SEED US LLC, priority 2017, dated 2022)

How the values were obtained:
[1] = tested on: soybean plants transformed by pMLS0519 (Pf-KGEPHSVV); assay: Field trial of the T1 generation, herbicide tolerance; type: in vivo; conditions: Puerto Rico, among the most effective constructs
From the text: (§1) The above result was confirmed in a field trial of the T1 generation.

[2] = tested on: soybean plants transformed by pCPE826 (Pf-Evo41+HPPD-Gm RNAi); assay: as above; conditions: in vivo
From the text: as §1

SMILES: CS(=O)(=O)c1cc(C(F)(F)F)ccc1C(=O)c1cnoc1C1CC1 [Isoxaflutole, (5-cyclopropyl-4-isoxazolyl)[2-(methylsulfonyl)-4-(trifluoromethyl)phenyl]methanone]
- tolerance to HPPD inhibitor [1]: good tolerance
- tolerance to HPPD inhibitor [2]: good tolerance
